In patent US11793199B2, “Formulations and methods for controlling rootworm larvae” (FMC Corporation, priority 2016, dated 2023):

Experiments:
WCRW larvae = experiment: Residual activity of treated soil maintained outdoors, water pH 6, 7, 8 (Example 4); format: in vivo, Diabrotica virgifera virgifera
Method: A solution of the Test Formula A was prepared by making dilutions in water to form a solution. Dry, Midwestern soil was brought up to 15% moisture with treatment solutions (Table 5). Buckets of treated soil were carted outside daily between Monday and Friday and exposed to direct sunlight. Carts were not wheeled out on days that forecasted precipitation. At the end of each day, soil buckets were brought back into the laboratory, weighed, the appropriate amount of water added to the soil to bring it back up to 15% moisture, and covered overnight; daily records of weights and amount of water added to each bucket was recorded.
At 30DAT, 42DAT, 57DAT, and 85DAT, […] WCRW larvae were infested into treated soil containing and germinating corn seed and evaluated 6 days after infestation (6DAI) for percent control and larval stunting. There were 6 replicates per infestation date with 5 larvae per replicate (n=30). Treatments applied to dry Midwestern soil for assessment of residual WCRW included Test Formula at 67, 267, and 1,069 ppm, Capture LFR at 1988.5 and 3,977 ppm.

2nd instar WCRW = experiment: Residual activity of treated Midwestern soil kept in lab at 15% moisture (Example 5); format: in vivo, Diabrotica virgifera virgifera
Method: In order to induce seed germination prior to test initiation, corn seed was submerged in water for 12 h and then placed between layers of moistened paper towel for 72 h. Plastic Dart® containers (1 oz/30 ml) were utilized for the assay. Treatments included tetraniliprole Test Formula according to the present invention, Capture LFR® (bifenthrin), and Rugby® (cadusafos). A 60 g ai/ha foliar rate applied at a volume of 30GPA equates to 213.8 ppm. If this application rate was condensed into a 6″ T-band application that assumed a 30″ row spacing, the ppm rate would increase to 1069 ppm (213.8 ppm×5). Five rates were selected for the experimental treatment (Test Formula) and compared to a single rate of two standard treatments (Capture LFR and Rugby). Treatment solutions (Table 4) were mixed into dry, sifted, Midwestern soil, from Wyoming, Illinois, by adding 300mLs of solution into 2000 g of soil and equates to approximate 15% soil moisture value; soil clumped when pinched.
An estimated 0.75 cm of treated soil was placed into the bottom of each container, one germinated corn seed was placed onto the soil, and then the arenas were capped with a lid until rootworms were infested. Corn was covered with approximately 1.75 cm of treated soil. Using a fine tipped paint brush, 5 WCRW larvae (2nd instar) were transferred onto the soil of each replicate and then capped. There were 8 replicates and 40 larvae per treatment. Arenas containing soil, corn, and larvae were transferred into the Insectary room (≈23° C., 0 L:24D) and evaluated 6 days later for the presence of living larvae. Larvae not recovered within each arena were considered dead. Additional treated soil was maintained within a 5 gallon bucket, covered with aluminum […], and weights recorded. Additional water was added every Monday in order to maintain a 15% soil moisture level.
All mortality data was analyzed by ANOVA/GLM with an alpha of 0.1 (Minitab 16.0).

tetraniliprole
control to WCRW larvae (WCRW larvae; 67 ppm (3.75 g ai/ha), soil kept outdoors, water pH 6, 7 or 8): ≥ 87% | state of surviving larvae compared to the non-treated check (WCRW larvae; 67 ppm, 57 DAT and 85 DAT): severely stunted | size of larvae (2nd instar WCRW; 3.75 g ai/ha, 0 DAT): approximately half the size as the untreated check | control to 2nd instar WCRW larvae at 64DAT (2nd instar WCRW; 15, 30, 60 g ai/ha, lab soil at 15% moisture): ≥ 95% | larval stunting compared to the untreated check (2nd instar WCRW; all treated soils, 0 DAT): Stunted larvae were detected | protection to the root and shoot system of corn (2nd instar WCRW; all treated soils, 0 DAT): evident | 2nd instar WCRW: % Mortality 0DAT (2nd instar WCRW; lab soil 15% moisture, 66.8 ppm (3.75 g ai/ha in-furrow), after 144 h within treated soil): < 80% | 2nd instar WCRW: % Mortality 0DAT (2nd instar WCRW; lab soil 15% moisture, 133.6 ppm (7.5 g ai/ha in-furrow), after 144 h within treated soil): < 80% | 2nd instar WCRW: % Mortality 0DAT (2nd instar WCRW; lab soil, 534.5 ppm (30 g ai/ha in-furrow), after 144 h): 97.5% | 2nd instar WCRW: % Mortality 0DAT (2nd instar WCRW; lab soil, 1069 ppm (60 g ai/ha in-furrow), after 144 h): 97.5%
